What was measured:
[1] = system: Y2301 ScCYP51 Y140F mutant; assay: Agarose (disk) diffusion assay, strain Y2301; format: cell-based, S. cerevisiae; settings: 10 nmol/disk, 30 °C, 48 h
Description: Final compounds were screened as racemic mixtures using agarose diffusion assays to visualize their inhibitory activity against a panel of recombinant S. cerevisiae strains i.e., S. cerevisiae strains expressing control levels of wild-type CYP51 (ScCYP51), overexpressed wild-type ScCYP51, overexpressed azole-resistant ScCYP51 Y140F/H mutations and overexpressed C. albicans efflux pumps MDR1a or CDR1B (Figure and Table S1).
The susceptibilities of S. cerevisiae and Candida species strains to azole compounds were observed as zones of growth inhibition in agarose diffusion assays. The disk diffusion assays were carried out as described by Keniya et al. Complete supplement mixture (CSM) agarose (0.6% agarose [wt/vol]; 20 mL of synthetic defined medium (SD); pH 6.8–7) was solidified in a rectangular Petri dish which was overlaid with CSM agarose (0.6% [wt/vol]; 5 mL; pH 6.8–7) seeded with yeast cells at an optical density (OD600) of 0.008 (118,000 cells per 1 mL of overlay). Azole compounds (10 nmol/disk) were applied to sterile BBL paper disks (Becton Dickinson Co., Sparks, MD) and placed on solidified overlays. Cell growth was assessed after incubation at 30 °C for 48 h.

Y2716 OE CpCYP51 Y132F = assay: MIC80 determination, strain Y2716; format: cell-based, S. cerevisiae
Procedure, shortened: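 Growth inhibition was scored by OD600 after incubation at 30 °C and 200 rpm, lasting 24 h for C. albicans and 48 h for S. cerevisiae strains, starting from OD600 0.005 (1.5 × 10^4 CFU). Each MIC80 reflects triplicates of 4-clone pools in three separate experiments.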

O=C(NCC(O)(Cn1cncn1)c1ccc(F)cc1F)c1ccc(-c2ccc(OC(F)(F)F)cc2)cc1 (stereo not drawn) [Compound 22, N-(2-(2,4-Difluorophenyl)-2-hydroxy-3-(1H-1,2,4-triazol-1-yl)propyl)-4’-(trifluoromethoxy)-[1,1’-biphenyl]-4-carboxamide]
zone of growth inhibition (inhibitory activity in words) [1]: unaffected inhibition zone size | increase in resistance owing to the CpCYP51 Y132F mutation (Y2716 OE CpCYP51 Y132F; MIC80 Y2716 versus Y2721): 2 fold | MIC80 (Y2716 OE CpCYP51 Y132F; Saccharomyces cerevisiae): 0.21 ± 0.043 µM

Source: article PMC12169614, “Exploring Long Arm Amide-Linked Side Chains in the Design of Antifungal Azole Inhibitors of Sterol 14α-Demethylase (CYP51)” (Journal of Medicinal Chemistry, 2025)
